Results reported in ChEMBL document CHEMBL4190224, “Xanthohumol Blocks Proliferation and Migration of Vascular Smooth Muscle Cells in Vitro and Reduces Neointima Formation in Vivo” (J Nat Prod, 2017).
The source made the active and inactive calls. The rule behind the calls is not given here.

Columns and labels:
[1] = tested on: VSMC; assay: Cytotoxicity against rat VSMC at 1 to 15 uM after 48 hrs by LDH release assay; assay type: cell-based
[2] = tested on: VSMC; assay: Antimigratory activity against PDGF-BB-stimulated rat VSMC at 15 uM preincubated for 30 mins followed by PDGF-BB addition measured after 20 hrs by scratch wound-healing assay; assay type: functional, cell-based
[3] = tested on: Mus musculus; assay: Inhibition of cuff-induced restenosis in C57BL/6 mouse femoral artery cuff model assessed as reduction in neointima formation dosed via local application using compound dissolved on F-127 gel measured after 2 weeks by hematoxylin and eosin staining-based microscopic analysis; assay type: functional, organism-based
[4] = tested on: VSMC; assay: Inhibition of PDGF-BB-induced rat VSMC proliferation preincubated for 30 mins followed by PDGF-BB addition measured after 48 hrs by resazurin assay; assay type: functional, cell-based

## COc1cc(O)c(CC=C(C)C)c(O)c1C(=O)/C=C/c1ccc(O)cc1 [XANTHOHUMOL]
[1]
  Activity: Non-Toxic
[2]
  Activity: Active
[3]
  Activity: Active
[4]
  IC50: 3.49 µM
  inhibition: Dose-dependent effect
